Measurements published in patent US20050180935A1, “Deodorant cosmetic composition comprising a combination of zinc gluconate and an antiperspirant aluminum salt” (priority 2003, published 2005).

Assay: deodorant efficacy test: odor intensity of incubated sweat rated by expert panel
Set-up: species or system human
Details: 24 h at 37° C, vs control sweat sample
Protocol: Collections of underarm sweat were taken in a sauna from 6 volunteers; the samples of individual sweat were stored in ice for a few hours and were initially almost odorless. They were mixed together and divided into 1 ml aliquots. The active agents were added to the aliquots, which were then incubated in an oven at 37° C. After incubation for 24 hours, a panel of experts evaluated the intensity of the odor in comparison with a control sample: 1 ml of sweat incubated without an active agent. The intensity was evaluated on a scale ranging from 0 (no odor) to 4 (very strong odor).
The results below are expressed as a percentage of variation of the intensity of the odor in comparison with the control sweat sample (mean of the percentages of variation at T24h).

## Oc1cc(Cl)ccc1Oc1ccc(Cl)cc1Cl [(B), 2,4,4′-trichloro-2′-hydroxydiphenyl ether]
0.4 mg AM/ml of sweat
  % of reduction in the intensity of the odor: −49%

## aluminum chlorohydrate [ACH]
0.1 mg AM/ml of sweat
  % of reduction in the intensity of the odor: −37%

## zinc gluconate [(A)]
0.5 mg AM/ml of sweat
  % of reduction in the intensity of the odor: −19%

## zinc ricinoleate [(C)]
0.3 mg AM/ml of sweat
  % of reduction in the intensity of the odor: −4%
